Source: patent US20150203471A1, “METHODS FOR IMPROVING CHICKEN PRODUCTION” (ELI LILLY AND COMPANY, priority 2012, published 2015)
Where a name gives a salt, the structure may show the parent alone. Read-outs that look alike come from different tables or passages of the source.

Key:
male broilers [1] = test: Study 1: growth performance and carcass responses of male broilers, compounds in feed vs positive and negative controls; type: in vivo, chicken; details: 14 days; for Ave daily live wt gain % inc. / Breast wt % inc. / Feed intake % inc. / Gain effic % inc. / Leg wt % inc. / Fat Pad wt % dec. / change in vivo at 15 ppm, 15 µg/mL: 15 ppm in feed ad libitum; for Ave daily live wt gain % inc. / Breast wt % inc. / Feed intake % inc. / Gain effic % inc. / Leg wt % inc. / change in vivo at 15 ppm, 15 µg/mL: percent change from negative control; for Fat Pad wt % dec.: percent decrease from negative control; for fat pad weight (in words) / feed intake (in words) / gain versus untreated control (in words) / improvement versus negative control and positive control (in words) / significance of the fat pad weight difference: 15 ppm in feed; for improvement versus negative control and positive control (in words): positive control = Compound 1; for change in vivo at 15 ppm, 15 µg/mL: Gallus gallus, feed or water, 336 h
From the text: An objective of this study is to evaluate growth performance and carcass responses of male broilers by comparing non-zero dosages of the above compounds versus a positive control (Compound 1) and negative controls. Table 1 sets out the specific treatment groups:
(§1) The route of administration is oral, with the compounds mixed in feed, and provided Ad libitum. The age of the chickens of Day 1 of the study is 35 days old. Body weights are taken on the following days: • 1) Study Day 1 (pen weight) • 2) Study Day 14 (individual animal weights) • 3) Study Day 15 (individual weights on selected animals) • 4) Study Day 16 (blocks 1-5) • 5) Study Day 17 (blocks 6-10).
(§2) Following collection of final weights, the following processing data is collected (hot weights) on individual animals: • 1) Live weight • 2) Hot carcass weight • 3) Fat pad weight • 4) Hot breast muscle weight • 5) Hot bone in leg weight

male broilers [2] = test: Study 2: growth performance and carcass responses of male broilers, compounds in feed in the last 14 days prior to slaughter; type: in vivo, chicken
Experimental: Compounds 2, 5, and 9 are used in this study. The study is conducted to evaluate growth performance and carcass responses of male broilers by comparing non-zero dosages of the compounds, versus negative control, administered in the last 14 days prior to slaughter. Table 3 sets out the specific treatment groups.
as §1, with “15” for “14”, “16” for “15”, “animals in animals in blocks 1-4)” for “animals)”, “Day” for “Day 16 (blocks 1-5) • 5) Study Day”, “(individual weights on selected animals in animals in blocks 5-8)” for “(blocks 6-10).”
as §2

[3] = tested on: Hubbard M99 X Cobb chicks; test: Study 3: dose response in live performance and carcass yields of commercial broilers raised to a small-size market; type: in vivo, chicken
Experimental: This study is conducted to determine the dose response of the Compound 5 measured in live performance and carcass yields of commercial broilers raised to a small-size market when fed a “typical” feed. 2400 Hubbard M99 X Cobb chicks (1200 male/1200 female) are used in this study. Compound 5 is administered at the following doses: 0, 2, 4, 8, and 16 ppm, orally in feed, beginning when the chicks are 24 days of age and ending when the chicks are 38 days of age. The five different Compound 5 doses are administered in a mash diet formulated to meet all nutrient recommendations using only commercially available ingredients.
Parameters measured in the study include ADG (average daily gain), ADFI (average daily feed intake), GE (gain efficiency), and FE (feed efficiency). The birds are measured for carcass (without giblets), breast muscle (boneless-skinless), and leg-quarter weights. The live body weight on the day of processing is used to calculate the yields for carcass, breast meat, and leg quarters for the birds.

[4] = tested on: Ross X Ross 708 male chicks; test: Study 4: live performance and carcass traits of broilers; type: in vivo, chicken; details: 16 ppm in feed vs 0 ppm, 34 to 48 days of age
Experimental: (§3) This study is conducted to investigate the effects of Compound 5 on live performance and carcass traits of broilers, and to evaluate the emission of various gases from broilers provision of feed with or without Compound 5. Ross X Ross 708 male chicks are used in this study. Compound 5 is administered at the following doses: 0 and 16 ppm, orally in feed, beginning when the chicks are 34 days of age and ending when the chicks are 48 days of age. The Compound 5 doses are administered in a mash diet formulated to meet all nutrient recommendations using only commercially available ingredients.
(§4) Parameters measured in the study include ADG, ADFI, and FCR. The birds are measured for carcass (without giblets), breast muscle (boneless-skinless), leg-quarter, and abdominal fat weights. The live body weight on the day of processing is used to calculate the yields for carcass, breast meat, and leg quarters for the birds. Also measured are emissions of various gases. Cumulative gas emission are monitored and calculated for the following gases: NH3, NO, NO2, H2S, SO2, methane/non-methane total hydrocarbon, O2, and CO2. The efficacy of Compound 5 is determined by the cumulative emission of these gases, as well as by standardizing these cumulative values to their body, carcass, breast meat, and leg-quarter weights.

[5] = tested on: Ross X Ross 708 male chicks; test: Study 4: cumulative gas emission from broilers; type: in vivo, chicken; details: 16 ppm in feed, 34 to 48 days of age, compared to untreated birds
Experimental: as §3, §4

[6] = Ames assay (mutagenicity); type: cell-based; details: compared with the other compounds tested
Zebrafish = Zebrafish assay (teratogenesis/chromosomal impact); type: in vivo; details: compared with the other compounds tested
[7] = male broilers, * in cell = not significant
[8] = male broilers 35 days old at Day 1, * in cell = not significant vs negative control, read-out: ADG % inc.
[9] = male broilers, * in cell = not significant, read-out: Hot carcass wt % inc.
[10] = 0, 2, 4, 8, 16 ppm in feed, 24 to 38 days of age
[11] = 0, 2, 4, 8, 16 ppm in feed, 24 to 38 days of age, male and female chicks

SMILES | Ave daily live wt gain % inc. (male broilers [1]; [7]) [%] | Breast wt % inc. (male broilers [1]; [7]) [%] | Feed intake % inc. (male broilers [1]; [7]) | Gain effic % inc. (male broilers [1]; [7]) [%] | Leg wt % inc. (male broilers [1]; [7]) [%] | Fat Pad wt % dec. (male broilers [1]; [7]) | fat pad weight (in words) (male broilers [1]) | feed intake (in words) (male broilers [1]) | gain versus untreated control (in words) (male broilers [1]) | improvement versus negative control and positive control (in words) (male broilers [1]) | change in vivo at 15 ppm, 15 µg/mL (male broilers [1]; [8]) [%] | change in vivo at 15 ppm, 15 µg/mL (male broilers [1]; [9]) [%] | F/G ratio (feed:gain efficiency) versus negative control group (male broilers [2]; 7 ppm in feed) | G/F ratio (gain:feed efficiency) versus negative control group (male broilers [2]; 7 ppm in feed) | hot bone-in leg weight versus negative control group (male broilers [2]; 7 ppm in feed) | hot breast muscle weight versus negative control group (male broilers [2]; 7 ppm in feed) | hot carcass weight versus negative control group (male broilers [2]; 7 ppm in feed) | significance of the fat pad weight difference (male broilers [1]) | F/G ratio (feed:gain efficiency) versus negative control group (male broilers [2]; 3.5 ppm in feed) | G/F ratio (gain:feed efficiency) versus negative control group (male broilers [2]; 3.5 ppm in feed) | also measured
CC(C)(Cc1ccc(Oc2ccc(C(=O)N3CCOCC3)cn2)cc1)NC[C@H](O)COc1cccc2[nH]ncc12 [Compound 2, (2S)-1-{[1,1-dimethyl-2-(4-{[5-(morpholin-4-ylcarbonyl)pyridin-2-yl]oxy}phenyl)ethyl]amino}-3-(1H-indazol-4-yloxy)propan-2-ol] | 8.3 | 6.1 | 4.8% | 3.8 | 8.2 | 12.8* % | reduce fat pad weight | significant increase in feed intake | significantly greater than untreated control | significantly better improvement than both the negative control and the positive control | 8.7 | 6.1 | significantly lower | significantly higher | significantly higher | significantly higher | significantly higher | – | – | – | ADFI versus negative control group (male broilers [2]; 3.5 ppm in feed): significantly lower
CC(C)(Cc1ccc(Oc2ccccn2)cc1)NC[C@H](O)COc1cccc2c1C(C)(C)C(=O)N2 [Compound 5, 4-[{(2S)-3-({1,1-dimethyl-2-[4-(pyridin-2-yloxy)phenyl]ethyl}amino)-2-hydroxypropyl]oxy}-3,3-dimethyl-1,3-dihydro-2H-indol-2-one hydrochloride] | 5.8 | 6.0 | 1.1* % | 4.9 | 8.1 | 17.4% | reduce fat pad weight | significant increase in feed intake | significantly greater than untreated control | significantly better improvement than both the negative control and the positive control | 5.1 | 5.8 | significantly lower | significantly higher | significantly higher | significantly higher | significantly higher | significant | significantly lower | significantly higher | ADG versus negative control group (male broilers [2]; 3.5 ppm in feed): significantly higher; hot bone-in leg weight versus negative control group (male broilers [2]; 3.5 ppm in feed): significantly higher; hot breast muscle weight versus negative control group (male broilers [2]; 3.5 ppm in feed): significantly higher; hot carcass weight versus negative control group (male broilers [2]; 3.5 ppm in feed): significantly higher; ADG versus negative control group (male broilers [2]; 7 ppm in feed): significantly higher; leg-quarter weight [3, 10]: Improvements are observed; leg-quarter yield [3, 10]: Improvements are observed; FE (feed efficiency) [3, 11]: Improvements are observed; GE (gain efficiency) [3, 11]: Improvements are observed; dose response of the improvements (GE, FE, leg-quarter weight and yield) ([3]; doses 2, 4, 8, 16 ppm in feed): doses at above 2 ppm do not show additional benefit; GE and FE by sex ([3]; male versus female broilers, 24 to 38 days of age): positively impacted only in female broilers; live performance and carcass traits monitored [4]: improvements in all live performance carcass traits monitored, except for ADFI and mortality; reduction in NH3 emission standardized to live weight of the birds or its saleable cuts [5]: more than 30%; reduction of cumulative emission of H2S [5]: 19.0%; reduction of cumulative emission of NH3 [5]: 29.2%; Ames assay result (mutagenicity) [6]: better results; Zebrafish assay result (teratogenesis/chromosomal impact) (Zebrafish): better results
CC(C)(Cc1ccc(Oc2ncccc2C(N)=O)cc1)NC[C@H](O)COc1cccc2[nH]ncc12 [Compound 9, 2-[4-(2-{[(2S)-2-hydroxy-3-(1H-indazol-4-yloxy)propyl]amino}-2-methylpropyl)phenoxy]pyridine-3-carboxamide] | 9.3 | 4.8 | 2.1* % | 6.7 | 7.9 | 17.8% | reduce fat pad weight | significant increase in feed intake | significantly greater than untreated control | significantly better improvement than both the negative control and the positive control | 8.9 | 5 | significantly lower | significantly higher | significantly higher | significantly higher | significantly higher | significant | significantly lower | significantly higher | hot bone-in leg weight versus negative control group (male broilers [2]; 3.5 ppm in feed): significantly higher; hot breast muscle weight versus negative control group (male broilers [2]; 3.5 ppm in feed): significantly higher; hot carcass weight versus negative control group (male broilers [2]; 3.5 ppm in feed): significantly higher; ADFI versus negative control group (male broilers [2]; 7 ppm in feed): significantly higher; ADG versus negative control group (male broilers [2]; 7 ppm in feed): significantly higher
